Assay results from publication PMC8782015, “Coumarin Derivatives Exert Anti-Lung Cancer Activity by Inhibition of Epithelial–Mesenchymal Transition and Migration in A549 Cells” (Pharmaceuticals, 2022).

What was measured:
A549 cells [1] = details: cited from earlier work
A549 cells [2] = experiment: MTT cell viability assay on A549 cells; assay type: cell-based, human; details: 24 h; for cytotoxicity (A549 cells viability, in words): single concentration 12 µM
Protocol: All the synthetic coumarins (7, 8a–f, 9a–g, 10, 11, 12a–c, 13a–c, 14–17) were first screened for their in vitro cytotoxic activity at a single concentration (12 µM) against NSCLC cell line (human lung adenocarcinoma A549) for 24 h, using the well-established 3-(4,5-dimethylthiazol-2-yl)-2,5-diphenyltetrazolium bromide (MTT) assay.
The effect of coumarin derivatives on cell viability was evaluated by the MTT assay at a single dose according to the NCI testing protocol or at different concentrations for IC50 determination. Coumarin derivatives were dissolved in dimethyl sulfoxide (DMSO) and then diluted with DMEM. Briefly, cells were plated in 96-well plates (2 × 10^4/well) and each coumarin derivative at 12 µM was added to the culture medium, and the cell cultures were continued for 24 h. Cisplatin (2.6 µM) was used as a reference drug. Thereafter, the medium was replaced with fresh DMEM containing 5 mg/mL MTT. Following an incubation period (4 h) in a humidified CO2 incubator at 37 °C and 5% CO2, the supernatant was removed, and dimethyl sulfoxide solution (DMSO, […]) was added to each cultured plate. After incubation at room temperature for 15 min, the absorbance of the solubilized MTT formazan product was spectrophotometrically measured at 540 nm. Three individual wells were assayed for each treatment, and the percentage viability relative to the control sample was determined as (absorbance of treated cells/absorbance of untreated cells) × 100%. Only the compound that reduced the viability by more than half the value of the control cells were screened in a range of concentration (10^−8 to 10^−3 M) with the A549, H2170, and NHI-3T3 cell lines. The concentration of 9f compound that reduced the viable cell number by 50% (CC50) was determined using a non-linear regression approach, and the mean value of CC50 for each cell type was calculated from triplicate.
Figure 1 Effect of synthetic coumarin derivatives on cell viability. The viability of A549 cells was determined using the MTT assay after exposure at a single concentration (12 µM) of the compounds or cisplatin (2.6 µM) for 24 h. The percentage of inhibition was calculated considering the cells treated with medium (DMEM), which was considered as 100% of cell viability (dotted line). Bars represent the mean ± S.D. from three independent experiments.
1.1. In vitro cytotoxicity assay of 9f compound on A549, H2170 and NIH3T3 cells
In order to determine the cytotoxic effect of 9f compound, the tumor cell lines A549 and H2170, and non-tumor cell line NHI-3T3 (1×10^5 per well) were seeded in the presence of the 9f compound concentration (1×10-3 to 1×10^-8 M) in 96-well microliter culture plate in a humidified CO2 (5%) incubator at 37 °C for 24h. Cell viabilities were measured using MTT assay as described in Materials and Methods Section. Three individual wells were assayed for each treatment and the percentage viability relative to the control sample was determined as (absorbance of treated cells/absorbance of untreated cells)×100%. A nonlinear regression analysis calculated using Prism 7.0 software (Graph- […]
25.8 ± 1.7 µM to NHI-3T3 cells (Figure S1).
Figure S1. Cytotoxicity assay (CC50) of increasing concentration of 9f compound on tumor cell lines (A549 and H2170) and non-tumor cell line (NHI-3T3) after 24 hours using MTT assay. All data were reported as the mean ± S.D. CC50 (M) values were calculated from the dose response curve using Prim 7 software.
(1 picture or pasted object on this page, not shown here)

[3] = system: IL-1β-stimulated A549 cells; experiment: IL-1β-induced EMT: cell morphology and F-actin (FITC-phalloidin) staining; assay type: cell-based, human; details: 7 µM, 1 ng/mL IL-1β, 24 h
Protocol: (§1) For induction of the EMT process, A549 cells (1 × 10^5 per well) were seeded in 24-well culture plates and treated with 1 ng/mL IL-1β (Peprotech, Rocky Hill, NJ, USA) for 24 h. In the unstimulated cells, DMEM medium was added. Then, the morphological alteration of cells was observed under a microscope. This protocol for EMT induction is as reported in the previous literature. To evaluate the effects of coumarin derivative with respect to EMT induced by IL-1β, cells were pretreated with compound 9f at 7 µM, being this treatment also maintained during stimulation with IL-1β for 24 h.
After 24 h, cells were fixed for 15 min at 4 °C with 4% paraformaldehyde in PBS. […] Cell morphology was determined using an inverted epifluorescence microscope (Nikon Eclipse 50i). Fluorescence quantification was done using ImageJ 1.47 software (NIH, Bethesda, MD, USA). Images were analyzed through the “Measure” menu, which allowed analyzing the fluorescence intensity signal per cell from original photomicrographs.
Figure 2 Compound 9f inhibited IL-1β-induced EMT in vitro. […] Cells were photographed using phase-contrast microscopy (A–D) or fluorescence microscopy (E–H). […] Actin (green) was detected via immunofluorescence in formaldehyde-fixed cells with FITC-conjugated phalloidin (1:100). […] Magnification ×100 (insert, magnification ×200) for phase-contrast microscope and ×400 for fluorescence microscope.

A549 cells [4] = experiment: In vitro scratch wound healing assay; assay type: cell-based, human; details: 7 µM, 24 h, IL-1β-stimulated A549 cells
Protocol: To evaluate the effect of 9f on epithelial motility, we performed the scratch assay as described by Cardoso et al.. Cells were maintained in 24-well plates until they reached 90% confluency. Thereafter, a vertical stripe on the cell monolayer was made using a sterile pipette (200 μL) tip. The wells were washed with PBS to remove dead cells and debris, and then, 9f was added at a concentration of 7 µM. As a control, the cells were treated with cell culture medium. Photographs were captured by a digital camera connected to an inverted microscope (Olympus IX70) at 0 and 24 h after scratch. The migration gap area of the cells was measured by ImageJ software (https://imagej.nih.gov/ij/; accessed on 24 November 2020, Center for Information Technology, National Institute of Health, Bethesda, […], USA). Each measurement was repeated three times.
Figure 4 The effect of 9f on the migration of A549 cells assayed by the wound-healing assay. Cells were treated with 9f at 7 µM, and images were captured to calculate the scratch closure. In (A), representative photomicrography images showing the cell migration toward the cell-free area after treatment with DMEM (control) or 9f and after 24 h. […] Values represent mean ± S.D. from three independent experiments. (+++) p < 0.001 compared with respective DMEM-treated cells and (***) p < 0.001 compared with IL-1β-stimulated cell vehicle-treated cells.

H2170 cells = experiment: MTT cell viability assay (CC50) on H2170 cells; assay type: cell-based; details: Homo sapiens, NCI-H2170, 24 h, mean ± S.D., read-out: CC50 (concentration that reduces the viable cell number by 50%)
Description: (§2) Among these two compounds, 9f was the most promising, reducing the A549 cells viability to less than 20%. […] Distinct explanations might be used to sustain this fact, including biochemical and metabolic changes between cell lines. While normal cells follow a set of organized metabolic programs, cancer cells show intrinsic or acquired resistance to apoptosis and also a metabolic reprogramming in order to meet the increased energy demands.
(§3) The effect of coumarin derivatives on cell viability was evaluated by the MTT assay at a single dose according to the NCI testing protocol or at different concentrations for IC50 determination. […] After incubation at room temperature for 15 min, the absorbance of the solubilized MTT formazan product was spectrophotometrically measured at 540 nm. Three individual wells were assayed for each treatment, and the percentage viability relative to the control sample was determined as (absorbance of treated cells/absorbance of untreated cells) × 100%. […]
In order to determine the cytotoxic effect of 9f compound, the tumor cell lines A549 and H2170, and non-tumor cell line NHI-3T3 (1×10^5 per well) were seeded in the presence of the 9f compound concentration (1×10-3 to 1×10^-8 M) in 96-well microliter culture plate in a humidified CO2 (5%) incubator at 37 °C for 24h. Cell viabilities were measured using MTT assay as described in Materials and Methods Section. […]

vimentin in A549 cells = experiment: Vimentin expression by immunofluorescence and flow cytometry; assay type: cell-based, human; details: 7 µM, 24 h
Protocol: as §1
In another set of experiments, the analysis for vimentin, a well-recognized marker for its selective expression and specific role in the mesenchymal state, was performed. […] Stained cells were analyzed by a flow cytometer (FACSCanto II, Becton Dickinson, San Jose, CA, USA) accompanied with the BD FACSDIVA™ software for data analysis. The cell-associated fluorescence of 5000 cells per sample was measured as mean fluorescence intensity (MFI) in the FL1 channel. The MFI values were corrected for unspecific staining by subtracting the fluorescence of cells unstained (negative control).
Figure 3 Compound 9f downregulates the expression of mesenchymal cell marker vimentin in IL-1β-induced EMT. […] The mesenchymal markers vimentin was detected by immunofluorescence. […] Magnification ×400 for fluorescence microscope. […]

[5] = MTT cell viability assay (CC50) on NIH-3T3 cells; assay type: cell-based; details: mouse, NIH-3T3 fibroblast cells (non-tumour), NIH-3T3 non-cancer cells, mean ± S.D., read-out: CC50 (concentration that reduces the viable cell number by 50%)
Description: as §2
A549, H2170, and normal mouse fibroblast (NIH-3T3) cell lines were obtained from the Rio de Janeiro Cell Bank (BCRJ). […]
as §3
Figure S1. […] All data were reported as the mean ± S.D. CC50 (M) values were calculated from the dose response curve using Prim 7 software. […]

## CC(=O)Oc1ccc2cc(-c3ccc(S(C)(=O)=O)cc3)c(=O)oc2c1OC(C)=O [8-(acetyloxy)-3-(4-methanesulfonylphenyl)-2-oxo-2H-chromen-7-yl acetate]
A549 cells [1]
  IC50: 24.2 µM

## COc1ccccc1-c1ccc2ccc(=O)oc2c1 [Compound 8b]
A549 cells [2]
  cytotoxicity (A549 cells viability, in words): little or no cytotoxicity

## COc1ccccc1-c1ccc2oc(=O)ccc2c1 [Compound 9c]
A549 cells [2]
  cytotoxicity (A549 cells viability, in words): little or no cytotoxicity

## O=c1ccc2cc(-c3ccc(Cl)c(Cl)c3)ccc2o1 [Compound 9f]
A549 cells [2]; Homo sapiens, A549 cells, mean ± S.D., read-out: CC50 (concentration that reduces the viable cell number by 50%)
  CC50: 7.1 ± 0.8 µM
[3]; FITC-labeled phalloidin
  actin cytoskeleton reorganization: attenuated the changes in the actin cytoskeleton reorganization
[3]; phase-contrast microscopy
  morphological changes (mesenchymal characteristics) induced by IL-1β: impairment in changes in its mesenchymal characteristics induced by IL-1β
A549 cells [4]
  migration (wound closure): significantly reduced
H2170 cells
  CC50: 3.3 ± 0.5 µM
Vimentin in A549 cells; IL-1β-stimulated (1 ng/mL) A549 cells
  expression of mesenchymal marker vimentin: significantly diminished
Vimentin in A549 cells; cells unstimulated with IL-1β
  levels of vimentin expression: did not change
[5]
  CC50 at 24 h: 25.8 µM

## O=c1ccc2ccc(C#CCO)cc2o1 [Compound 12c]
A549 cells [2]
  cytotoxicity (A549 cells viability, in words): little or no cytotoxicity

## O=c1ccc2cc(C#CCCCc3ccccc3)ccc2o1 [Compound 13b]
A549 cells [2]
  cytotoxicity (A549 cells viability, in words): little or no cytotoxicity

## O=c1ccc2cc(Cc3ccccc3)ccc2o1 [Compound 14]
A549 cells [2]
  cytotoxicity (A549 cells viability, in words): little or no cytotoxicity

## O=c1ccc2ccc(Cc3ccccc3)cc2o1 [Compound 15]
A549 cells [2]
  cytotoxicity (A549 cells viability, in words): little or no cytotoxicity

## O=c1ccc2ccc(CCc3ccccc3)cc2o1 [Compound 16]
A549 cells [2]
  cytotoxicity (A549 cells viability, in words): little or no cytotoxicity

## CC(C)=CCC/C(C)=C/CC/C(C)=C/COc1ccc2ccc(=O)oc2c1 [umbelliprenin]
A549 cells [1]
  IC50: 52 ± 1.97 µM
